pIC50: −log10 of the molar value.
Experiments:
HIF-1α = assay: Expression of HIF-1α protein in Hep3B cells (western blot, grayscale analysis); type: cell-based, Human; details: for fold induction at 30 µM: Homo sapiens, 2 h, compound at 30 μM, 10 μM and 3 μM, read-out: HIF-1α level of the compound of the present disclosure/HIF-1α level of blank control
Experimental: A test compound was dissolved in dimethyl sulfoxide into a 100 mM stock solution, and then was diluted with 0.5% FBS-containing DMEM medium into 30 μM, 10 μM and 3 μM for later use. Human liver cancer cells Hep3B were seeded in a six-well plate at a density of 2.25*10^5 cells/well, 2 mL per well. After cultivation overnight, the cells were treated with compounds at different concentrations for 2 h. The proteins were extracted for western blot and further grayscale analysis.

PHD3 = PHD3 (Homo sapiens (Human), UniProt Q9H6Z9); assay: PHD enzyme assay (Eu-VBC TR-fluorescence); type: biochemical
Experimental: (§1) VHL/elongin B/elongin C were constructed, expressed and purified, and VHL was labeled. PHD1, PHD2 and PHD3 were constructed, expressed and purified. VBC protein was labeled with DELFIA Eu-Labeling Kit. A NeutrAvidin 96-well plate was blocked after the addition of 200 μL Blocker Casein to each well, followed by incubation for 30 min. Each well was washed 3 times by adding 200 μL of washing buffer each time. A 200 nM HIF-1a 556-574 solution was prepared with washing buffer, and 100 μL of the solution was added to each well, followed by incubation for 60 min. Each well was washed 3 times by adding 200 μL of washing buffer each time. A 1 mM Biotin solution was prepared with Blocker Casein, and 100 μL of the solution was added to each well, followed by incubation for 30 min. Each well was washed 3 times by adding 200 μL of washing buffer each time. A 20× compound solution was prepared with PHD reaction buffer, with the final concentration of DMSO being 1%. PHD solutions were prepared with PHD reaction buffer, and the concentrations of PHD1, 2, and 3 solutions were 10 ng/μL, 5 ng/μL, and 15 ng/μL, respectively. 95 μL of the PHD solution was added to each compound well, followed by the addition of 5 μL of the compound solution, 95 μL of the PHD solution was added to each full active well, followed by the addition of 5 μL of the PHD reaction buffer; and 100 μL of the PHD reaction buffer was added to each blank well. After mixing homogeneously, the wells were incubated for 60 min. Each well was washed 3 times by adding 200 μL of washing buffer each time A 1 ng/μL Eu-VBC solution was prepared with Eu-VBC binding buffer, and 100 μL of the solution was added to each well, followed by incubation for 60 min. Each well was washed 6 times by adding 200 μL DELFIA Wash Concentrate each time. 100 μL DELFIA Enhancement Solution was added to each well. A microplate reader was used to read TR-Fluorescence at Ex340 and Em615. The flurescence of the sample wells was recorded as FLUsample, the flurescence of the full active wells was recorded as FLU100%, and the flurescence of the blank well was recorded as FLU0%.

PHD1 = PHD1 (Homo sapiens (Human), UniProt Q96KS0); assay: PHD enzyme assay (Eu-VBC TR-fluorescence); type: biochemical
Experimental: as §1

[1] = system: Erythropoietin in liver cancer cells Hep3B; assay: Expression of erythropoietin in liver cancer cells Hep3B in vitro (EPO ELISA of supernatant); type: cell-based, Human
Experimental: The cells were adherent cultured overnight, and after discarding the used medium. In the 96-well culture plate, the cells were washed once with 0.5% FBS-containing DMEM medium. […] 0.5% FBS-containing DMEM medium was used instead of the drug solution as the control well. After incubation in a 37° C., 5% CO2 incubator for 24 h, the supernatant was taken as a sample and frozen at −20° C. for later use. An Elisa kit (abeam) was used to detect EPO in the cell supernatant. A microplate reader was used to detect the OD value at 450/620 nm.

reticulocytes = assay: Effect on reticulocytes of normal mice; type: in vivo, Balb/c mice; design: Reticulocytes (RETIC), average: unit not given here; details: 10 mg/kg p.o., once; 72 h after administration
Experimental: 72 Balb/c mice, male, were divided into 12 groups, 6 mice in each treatment group. In the positive drug control groups: the mice in the FG-4592 treatment groups were orally administered once, at two doses of 10 mg/kg and 50 mg/kg, and the mice in the rhEPO treatment group was intraperitoneaily injected once, at a dose of 100 IU/kg. The compounds of the present disclosure were all orally administered once at a dose of 10 mg/kg. 72 h after the administration, blood was collected from the orbit of all animals, and subjected to EDTA-K2 anticoagulation. Then reticulocytes (RETIC) were counted with an automatic blood cell analyzer.

CYP1A2 = CYP1A2 (Homo sapiens (Human), UniProt P05177); type: in vitro ADME
Source text: The compounds of the present disclosure were subjected to the CYP450 enzyme inhibition assay.

Sequence of PHD3 (Q9H6Z9 whole entry): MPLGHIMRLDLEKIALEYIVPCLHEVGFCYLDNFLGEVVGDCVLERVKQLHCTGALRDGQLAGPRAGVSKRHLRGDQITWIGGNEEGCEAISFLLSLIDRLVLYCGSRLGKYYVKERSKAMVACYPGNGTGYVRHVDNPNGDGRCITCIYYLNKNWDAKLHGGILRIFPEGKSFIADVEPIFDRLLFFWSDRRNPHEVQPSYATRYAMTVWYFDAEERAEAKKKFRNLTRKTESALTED
Sequence of PHD1 (Q96KS0 whole entry): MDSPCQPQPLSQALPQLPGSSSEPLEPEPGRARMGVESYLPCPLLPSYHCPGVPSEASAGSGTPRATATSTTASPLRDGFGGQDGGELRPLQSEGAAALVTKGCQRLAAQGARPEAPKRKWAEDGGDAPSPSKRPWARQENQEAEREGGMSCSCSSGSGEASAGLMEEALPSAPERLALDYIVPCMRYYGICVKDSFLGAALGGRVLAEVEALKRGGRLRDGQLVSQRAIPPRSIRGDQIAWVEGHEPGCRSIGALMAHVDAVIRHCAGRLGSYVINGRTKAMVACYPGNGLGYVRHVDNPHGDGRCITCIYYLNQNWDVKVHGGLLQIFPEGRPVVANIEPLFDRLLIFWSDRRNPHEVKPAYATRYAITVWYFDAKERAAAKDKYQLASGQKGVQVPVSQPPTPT
Sequence of CYP1A2 (P05177 whole entry): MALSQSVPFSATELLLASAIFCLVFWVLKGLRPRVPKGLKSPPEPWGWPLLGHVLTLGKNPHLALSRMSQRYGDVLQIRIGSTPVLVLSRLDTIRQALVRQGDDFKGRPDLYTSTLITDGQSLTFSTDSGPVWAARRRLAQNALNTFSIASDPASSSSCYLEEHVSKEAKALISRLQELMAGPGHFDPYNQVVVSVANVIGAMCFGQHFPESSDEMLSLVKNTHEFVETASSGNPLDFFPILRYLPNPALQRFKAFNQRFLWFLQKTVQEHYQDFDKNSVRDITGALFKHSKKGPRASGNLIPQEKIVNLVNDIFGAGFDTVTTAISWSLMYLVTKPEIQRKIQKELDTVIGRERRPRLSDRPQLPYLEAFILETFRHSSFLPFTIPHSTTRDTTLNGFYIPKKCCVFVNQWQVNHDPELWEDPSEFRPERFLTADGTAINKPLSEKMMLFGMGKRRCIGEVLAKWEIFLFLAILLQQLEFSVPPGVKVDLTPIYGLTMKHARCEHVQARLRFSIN

Compound	HIF-1α protein expression compared with blank control (HIF-1α)	Promoting effect on HIF-1α expression compared with FG4592 (HIF-1α)	fold induction at 30 µM (HIF-1α)	Effect on PHD3 compared with compounds of Comparative Examples 1-3 (PHD3)	IC50 (PHD3)	Effect on PHD1 compared with compounds of Comparative Examples 1-3 (PHD1)	IC50 (PHD1)	EPO-enhancing effect compared with positive control drug FG4592 [1]	Reticulocytes (RETIC), average (reticulocytes)	pIC50 (CYP1A2)
O=C(O)CNC(=O)c1nc(Cl)c2nc(Oc3ccccc3)ccc2c1O [Link-118, 2-(2-phenoxy-5-hydroxy-8-chloro-1,7-naphthyridine-6-formamido) Acetic Acid]	higher than that of the blank control	stronger than that of the positive control drug FG4592	> 10	better effect	72.8 nM	better effect	46.9 nM	higher than that of the positive control drug FG4592	8.62	< 4.30
O=C(O)CNC(=O)c1nc(Br)c2nc(Oc3ccccc3)ccc2c1O [Link-121, 2-(2-phenoxy-5-hydroxy-8-bromo-1,7-naphthyridine-6-formamido) Acetic Acid]	higher than that of the blank control		4.5 to 8.5	better effect	95.6 nM	better effect	40.3 nM	higher than that of the positive control drug FG4592	7.28	< 4.30

— patent US11981669B2, “1,7-naphthyridine derivative and preparation method and use therefor” (CSPC ZHONGQI PHARMACEUTICAL TECHNOLOGY (SHIJIAZHUANG) CO., …, priority 2018, dated 2024)
